Consider 27 compounds from ChEMBL document CHEMBL1155232, “Aminoimidazoles as potent and selective human beta-secretase (BACE1) inhibitors” (J Med Chem, 2009).

The source made the active and inactive calls. No cut-off for these calls is given here.

Test [1] concerns the target T1, Cathepsin D (Homo sapiens, UniProt P07339). The experiment in a line: Inhibition of human cathepsin D by FRET.
In the next test the target is T2, Beta-secretase 2 (Homo sapiens, UniProt Q9Y5Z0).
T2 sequence (Q9Y5Z0 whole entry): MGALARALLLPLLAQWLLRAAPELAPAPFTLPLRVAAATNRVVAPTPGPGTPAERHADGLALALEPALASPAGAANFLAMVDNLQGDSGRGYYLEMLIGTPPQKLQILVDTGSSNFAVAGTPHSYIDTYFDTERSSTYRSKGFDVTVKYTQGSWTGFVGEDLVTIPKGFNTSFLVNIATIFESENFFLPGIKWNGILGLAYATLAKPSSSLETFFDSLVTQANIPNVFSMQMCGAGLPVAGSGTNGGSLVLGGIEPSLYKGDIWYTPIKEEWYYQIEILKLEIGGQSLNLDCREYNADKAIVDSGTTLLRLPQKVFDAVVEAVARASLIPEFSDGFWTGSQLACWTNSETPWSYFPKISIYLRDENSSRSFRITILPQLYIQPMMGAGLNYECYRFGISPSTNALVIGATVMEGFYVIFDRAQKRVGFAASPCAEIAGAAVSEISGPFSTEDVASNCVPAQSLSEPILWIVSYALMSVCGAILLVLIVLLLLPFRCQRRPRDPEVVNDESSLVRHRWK

The target of test [2] is T1, Cathepsin D. The experiment in a line: Inhibition of human cathepsin D at 100 uM by FRET.
Test [3] is described as follows: Inhibition of pepsin at 100 uM by FRET.
Test [4] concerns the target T3, Beta-secretase 1 (Homo sapiens, UniProt P56817). In words: Inhibition of human BACE1 by FRET.
The target in another test is T4, Renin (Homo sapiens) (UniProt P00797).
T4 sequence (whole entry): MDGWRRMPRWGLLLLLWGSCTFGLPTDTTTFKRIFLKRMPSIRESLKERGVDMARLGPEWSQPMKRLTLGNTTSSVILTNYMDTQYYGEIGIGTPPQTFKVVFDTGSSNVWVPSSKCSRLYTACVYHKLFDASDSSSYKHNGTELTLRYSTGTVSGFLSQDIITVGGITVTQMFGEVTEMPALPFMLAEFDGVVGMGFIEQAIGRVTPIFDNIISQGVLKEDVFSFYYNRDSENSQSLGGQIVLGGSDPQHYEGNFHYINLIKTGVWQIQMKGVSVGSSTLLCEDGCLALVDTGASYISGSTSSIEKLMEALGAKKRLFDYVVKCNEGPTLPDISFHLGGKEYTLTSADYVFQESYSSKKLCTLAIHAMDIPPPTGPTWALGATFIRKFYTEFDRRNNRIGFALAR
In words: Inhibition of human recombinant renin at 50 uM by FRET.

For test [5], the target named is T3, Beta-secretase 1. The experiment in a line: Inhibition of BACE1 expressed in CHO cells co-expressing human wild type APP protein by ELISA. In kind it is cell-based.
Test [6] has as its system Mus musculus. The experiment in a line: Reduction in Abeta-40 level in Tg2576 mouse brain at 30 mg/kg, po administered as single dose after 6 hrs. The format is functional, organism-based. The arrangement: dose 30 mg/kg.
A further test concerns the target T5, Renin (Homo sapiens, UniProt P00797).
T5 sequence (P00797 whole entry): T4 sequence (whole entry)
In words: Inhibition of human recombinant renin by FRET.

For test [7], the system named is Mus musculus. In words: Reduction in Abeta-40 level in Tg2576 mouse plasma at 30 mg/kg, po administered as single dose after 6 hrs. In kind it is functional. The arrangement: scale not given: the % may be the effect or the level left.
Test [8] concerns the target T6, Beta-secretase 2 (Homo sapiens) (UniProt Q9Y5Z0).
T6 sequence (whole entry): T2 sequence (Q9Y5Z0 whole entry)
The experiment in a line: Inhibition of human BACE2 at […] by FRET.

Test [9] addresses T6, Beta-secretase 2 (Homo sapiens). The experiment in a line: Inhibition of human BACE2 at 100 uM by FRET.
In test [10] the target is T1, Cathepsin D. The experiment in a line: Inhibition of human cathepsin D at 200 uM by FRET.

T1 sequence (P07339 65-162 limits assumed): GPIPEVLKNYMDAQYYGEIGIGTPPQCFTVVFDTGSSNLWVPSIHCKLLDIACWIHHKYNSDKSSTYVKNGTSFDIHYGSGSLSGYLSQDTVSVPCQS
T1 sequence (P07339 169-412 limits assumed): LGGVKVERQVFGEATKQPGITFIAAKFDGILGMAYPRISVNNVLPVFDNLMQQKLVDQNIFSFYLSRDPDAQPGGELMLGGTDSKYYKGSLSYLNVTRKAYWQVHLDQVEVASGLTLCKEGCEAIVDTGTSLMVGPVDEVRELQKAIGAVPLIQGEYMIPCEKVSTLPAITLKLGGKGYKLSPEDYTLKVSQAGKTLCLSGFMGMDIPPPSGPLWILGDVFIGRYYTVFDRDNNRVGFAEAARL
T3 sequence (P56817 whole entry): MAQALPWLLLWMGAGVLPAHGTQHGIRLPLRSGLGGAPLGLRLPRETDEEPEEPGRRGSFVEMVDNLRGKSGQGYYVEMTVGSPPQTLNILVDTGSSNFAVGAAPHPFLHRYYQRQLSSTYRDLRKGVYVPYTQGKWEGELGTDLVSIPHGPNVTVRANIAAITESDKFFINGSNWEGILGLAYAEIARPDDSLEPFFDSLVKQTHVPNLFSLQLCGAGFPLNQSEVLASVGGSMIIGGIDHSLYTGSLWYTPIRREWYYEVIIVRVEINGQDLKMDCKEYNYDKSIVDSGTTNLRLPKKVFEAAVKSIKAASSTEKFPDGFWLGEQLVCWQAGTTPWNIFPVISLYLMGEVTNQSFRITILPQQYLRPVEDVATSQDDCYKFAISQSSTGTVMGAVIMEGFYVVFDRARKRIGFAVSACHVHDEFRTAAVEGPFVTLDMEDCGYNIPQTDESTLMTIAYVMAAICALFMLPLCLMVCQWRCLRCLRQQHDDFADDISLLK

In the case of `NC1=NC(c2cccc(-c3cccnc3F)c2)(c2ccc3c(c2)OC(F)(F)O3)C2=NCCCN12` (stereo unspecified), it took 95.3 µM to reach half-maximal inhibition against Cathepsin D [1] (IC50).

`COc1ccc(C2(c3cccc(-c4cncnc4)c3)N=C(N)N3CCCN=C32)cc1` (stereo unspecified): the concentration for half-maximal inhibition (IC50) was found to be 16.2 µM against Beta-secretase 2 and 69.5 µM against Cathepsin D [1].

Compound `NC1=N[C@@](c2ccc(OC(F)(F)F)cc2)(c2cccc(-c3cncnc3)c2)C2=NCCCN12` registered an inhibition against Cathepsin D [2] of 29%.

Consider `CCOc1ccc(C2(c3cccc(-c4cccnc4F)c3)N=C(N)N3CCCN=C32)cc1OCC` (stereo unspecified), for which the inhibition turned out to be 11% in [3] and 14% at Renin (Homo sapiens). Also, the half-maximal inhibitory concentration (IC50) on Beta-secretase 1 [4] turned out to be 0.08 µM; against Cathepsin D [1], 63.4 µM.

`CCCc1cccc(C2(c3ccc(OC(F)(F)F)cc3)N=C(N)N3CCCN=C32)c1` (stereo unspecified) yielded an EC50 at Beta-secretase 1 [5] of 2.1 µM. Also, 93.7 µM corresponded to half-maximal inhibition against Cathepsin D [1] (IC50).

Regarding `NC1=N[C@](c2ccc(OC(F)(F)F)cc2)(c2cccc(-c3cccnc3F)c2)C2=NCCCN12`, the inhibition in test [3] turned out to be 13%. Also, the results for the IC50 at Beta-secretase 2, on Renin and against Cathepsin D [1] were 3.6 µM, 20.8 µM and 6.9 µM, respectively. Moreover, the outcome in the test on Mus musculus [6] was inactive. Also, the Activity in the test on Mus musculus [7] amounted to 71%.

As for `NC1=NC(c2ccc(OC(F)(F)F)cc2)(c2cccc(-c3cncnc3)c2)C2=NCCCN12` (stereo unspecified), the figures for the IC50 on Beta-secretase 2 and against Cathepsin D [1] were 16.7 µM and 78.7 µM, respectively.

For the compound `NC1=NC(c2ccc(OC(F)(F)F)cc2)(c2cccc(Br)c2)C2=NCCCN12` (stereo unspecified), the IC50 on Beta-secretase 1 [4] was determined as 2.6 µM; against Cathepsin D [1], 47.4 µM. The compound further came in with an EC50 on Beta-secretase 1 [5] of 1.6 µM. In [8], this compound came in with an inhibition of 39%.

`NC1=NC(c2ccc(OC(F)(F)F)cc2)(c2cccc(-c3cccnc3F)c2)C2=NCCN12` (stereo unspecified) showed an IC50 against Cathepsin D [1] of 10.7 µM.

With `CC1(C)CN2C(N)=NC(c3ccc(OC(F)(F)F)cc3)(c3cccc(-c4cccnc4F)c3)C2=N1` (stereo unspecified), the IC50 was found to be 0.19 µM against Beta-secretase 1 [4], 17.3 µM at Beta-secretase 2 and 33 µM at Cathepsin D [1]. For the same compound, the EC50 on Beta-secretase 1 [5] was determined as 1.5 µM.

On Cathepsin D [1], `NC1=N[C@@](c2ccc(OC(F)(F)F)cc2)(c2cccc(-c3cccnc3F)c2)C2=NCCCN12` displayed an IC50 of 56.9 µM.

In the case of `NC1=NC(c2ccc(OC(F)(F)F)cc2)(c2cccc(-c3cccnc3F)c2)/C2=N/CCCCCN12` (stereo unspecified), the IC50 on Beta-secretase 2 came out at 10.8 µM; at Cathepsin D [1], 11.3 µM.

With `CC(C)(C)c1cccc(C2(c3ccccc3)N=C(N)N3CCCN=C32)c1` (stereo unspecified), the results for the IC50 against Beta-secretase 1 [4] and at Cathepsin D [1] were 30.2 µM and 150 µM, respectively. Also, in [9], the inhibition was found to be 21%. The concentration for a half-maximal effect (EC50) on Beta-secretase 1 [5] was determined as 3 µM.

Take `COc1ccc(C2(c3cccc(-c4cccnc4F)c3)N=C(N)N3CCCN=C32)cc1` (stereo unspecified): the values for the concentration for half-maximal inhibition (IC50) on Beta-secretase 1 [4] and against Cathepsin D [1] were 0.07 µM and 16.5 µM, respectively. Moreover, at Beta-secretase 1 [5], the EC50 amounted to 1.63 µM.

With `NC1=NC(c2ccc(OC(F)(F)F)cc2)(c2cccc(-c3cccnc3F)c2)C2=NCCCCN12` (stereo unspecified), the IC50 against Beta-secretase 1 [4] amounted to 0.08 µM; at Cathepsin D [1] it was 10.8 µM. The same compound returned an EC50 on Beta-secretase 1 [5] of 0.3 µM.

Take `COc1ccc(Cc2cccc(C3(c4ccccc4)N=C(N)N4CCCN=C43)c2)cc1` (stereo unspecified): the concentration for half-maximal inhibition (IC50) came to 22.4 µM on Beta-secretase 2 and 24.9 µM against Cathepsin D [1]. The compound further had an EC50 on Beta-secretase 1 [5] of 5.1 µM.

On to `COc1cccc(C2(c3ccccc3)N=C(N)N3CCCN=C32)c1` (stereo unspecified), for which the IC50 against Beta-secretase 1 [4] was determined as 20.3 µM; at Beta-secretase 2, 24.4 µM. Besides, the inhibition against Cathepsin D [2] is 22%. This compound also had an EC50 on Beta-secretase 1 [5] of 20.9 µM.

In turn, `NC1=NC(c2ccc(OC(F)(F)F)cc2)(c2cccc(-c3cccnc3F)c2)C2=NOCCN12` (stereo unspecified) gave an inhibition in test [3] of 12%. Further, the IC50 at Renin turned out to be 2.04 µM; against Cathepsin D [1], 2.4 µM. The same compound yielded an EC50 on Beta-secretase 1 [5] of 0.2 µM.

As to `NC1=NC(c2ccccc2)(c2cccc(Cc3ccccc3)c2)C2=NCCCN12` (stereo unspecified), the figures for the IC50 on Beta-secretase 2 and against Cathepsin D [1] were 10.9 µM and 52.5 µM, respectively. Moreover, the half-maximal effective concentration (EC50) at Beta-secretase 1 [5] amounted to 5.1 µM.

In turn, `NC1=NC(c2cccc(-c3cccnc3F)c2)(c2ccc3c(c2)OCCO3)C2=NCCCN12` (stereo unspecified) registered an IC50 on Cathepsin D [1] of 9.6 µM.

As for `NC1=NC(c2ccc(OC(F)(F)F)cc2)(c2cccc(CCC3CC3)c2)C2=NCCCN12` (stereo unspecified), the IC50 against Beta-secretase 2 came out at 3.78 µM; against Cathepsin D [1], 16.4 µM. This compound also showed an EC50 at Beta-secretase 1 [5] of 0.95 µM.

Consider `NC1=NC(c2cccc(-c3cccnc3F)c2)(c2ccc3c(c2)OCO3)C2=NCCCN12` (stereo unspecified), for which the inhibition stood at 18% in test [3] and 24% at Renin (Homo sapiens). The same compound showed an IC50 against Cathepsin D [1] of 15.4 µM.

At Cathepsin D [10], `NC1=NC(c2ccccc2)(c2ccccc2)C2=NCCCN12` registered an inhibition of 16%.

Consider `NC1=N[C@](c2ccc(OC(F)(F)F)cc2)(c2cccc(-c3cncnc3)c2)C2=NCCCN12`, for which the inhibition in test [3] stood at 12%; at Renin (Homo sapiens) it was 36%. The IC50 against Beta-secretase 2 turned out to be 10.7 µM; at Cathepsin D [1] it was 36.2 µM.

For `NC1=NC(c2ccc(OC(F)(F)F)cc2)(c2cccc(-c3cccnc3F)c2)C2=NCCCN12` (racemic), the IC50 against Cathepsin D [1] came to 18.1 µM.

Turning to `NC1=NC(c2ccccc2)(c2cccc(C(F)(F)F)c2)C2=NCCCN12` (stereo unspecified), the IC50 against Beta-secretase 1 [4] came to 21.9 µM; at Beta-secretase 2, 30.1 µM. Besides, the inhibition against Cathepsin D [2] worked out at 28%. The compound also had an EC50 at Beta-secretase 1 [5] of 5.1 µM.

Take `NC1=NC(c2ccccc2)(c2cccc(Cc3ccc(F)cc3)c2)C2=NCCCN12` (stereo unspecified): the inhibition was found to be 6% in test [3] and 15% at Renin (Homo sapiens). For the same compound, the IC50 on Beta-secretase 2 came out at 7 µM; against Cathepsin D [1], 9.2 µM. The same compound yielded an EC50 on Beta-secretase 1 [5] of 4.6 µM.
